According to patent US20220323427A1, “SOMATOSTATIN RECEPTOR TYPE 5 AGONIST FOR THE TREATMENT OF HYPERINSULINISM” (Crinetics Pharmaceuticals, Inc., priority 2021, published 2022):

Molecular target: T1, human somatostatin receptor subtype 5 (Homo sapiens, UniProt P35346)
T1 construct: expressed in transfected cells
Experiment: cAMP assay for SST5R
Type: cell-based
From the text: General overview: All five SSTR subtypes are Gi coupled G-protein coupled receptors (GPCRs) that lead to decreases in intracellular cyclic AMP (cAMP) when activated by an agonist. Therefore, measurement of intracellular cAMP levels can be used to assess whether compounds of the invention are agonists of SSTR subtypes (John Kelly, Troy Stevens, W. Joseph Thompson, and Roland Seifert, Current Protocols in Pharmacology, 2005, 2.2.1-2.2). One example of an intracellular cAMP assay is described below.
Four days prior to the assay, 2,000 Chinese hamster ovary cells (CHO-K1, ATCC #CCL-61) stably expressing the human somatostatin receptor subtype 5 are plated in each well of a 96-well tissue culture-treated plate in Ham's F12 growth media (ThermoFisher #10-080-CM) supplemented with 10% donor bovine serum (Gemini Bio-Products #100-506), 100 U/mL penicillin; 100 μg/mL streptomycin; 2 mM L-glutamine (Gemini Bio-Products #400-110) and 0.25 mg/mL G418 Sulfate (GoldBio #108321-42-2). The cells are cultured at 37° C., 5% CO2 and 95% humidity. […] The time-resolved fluorescent signal is read with a Tecan M1000Pro multiplate reader. The intracellular cAMP concentrations are calculated by regression to a standard curve and are plotted vs. the concentration of the compounds of the invention and the EC50 of the compounds are calculated using standard methods. […]

T1 sequence (P35346 whole entry): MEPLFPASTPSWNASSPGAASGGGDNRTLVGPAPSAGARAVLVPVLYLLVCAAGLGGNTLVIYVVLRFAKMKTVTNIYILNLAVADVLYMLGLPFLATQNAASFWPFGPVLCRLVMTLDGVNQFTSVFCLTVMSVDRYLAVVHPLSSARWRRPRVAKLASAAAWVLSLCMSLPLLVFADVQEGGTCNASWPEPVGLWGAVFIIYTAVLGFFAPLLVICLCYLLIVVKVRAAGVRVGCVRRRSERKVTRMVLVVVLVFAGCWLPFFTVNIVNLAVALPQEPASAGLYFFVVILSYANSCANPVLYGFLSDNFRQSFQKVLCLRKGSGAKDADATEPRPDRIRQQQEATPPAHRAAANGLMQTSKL

Fold selectivity for SST5 vs SST2 (human SST5 vs human SST2, cAMP): >500 fold | EC50 (inhibition of cAMP, CHO-K1 cells expressing human SST5, read-out: SST5 potency (EC50; nM)): < 1 nM
Structure (SMILES): C[C@H](NC(=O)c1cnc(C#N)c(-c2cc(F)cc(F)c2)c1N1CC[C@H](N)C1)C(F)(F)F [Compound 1, 4-[(3S)-3-aminopyrrolidin-1-yl]-6-cyano-5-(3,5-difluorophenyl)-N-[(2S)-1,1,1-trifluoropropan-2-yl]pyridine-3-carboxamide]
